Assay results published in PMC12316308, “Interactions of substrates and phosphinyl containing inhibitors with bacterial and human zinc proteases” (PLOS One, 2025).
Like-named read-outs stand apart in the source and are kept apart here. Where a SMILES comes first, the peptide text is derived from it. [ ]: non-standard residue; d: D form. The star is where a group is joined. Dnp = O=[N+]([O-])c1ccc(*)c([N+](=O)[O-])c1; Mca = COc1ccc2c(CC(=O)*)cc(=O)oc2c1; Dap = NC[C@H](N)C(=O)O

Key:
MMP-14 = biological target: T1, MMP-14 (Homo sapiens, UniProt P50281); parameters: method as in PMID 33757387; conditions: 1% DMSO; cited from earlier work
T1 construct: human MT1-MMP/MMP-14 (catalytic domain); purchased Calbiochem (San Diego, CA, USA)

MMP-9(A) = biological target: T2, MMP-9(A) (Homo sapiens, UniProt P14780); parameters: method as in PMID 33757387; conditions: 1% DMSO; cited from earlier work
T2 construct: made in house; host or cells: Sf9 and High Five insect cells

[1] = biological target: T3, APMA activated MMP-9 (MMP-9(A)) (Homo sapiens, UniProt P14780); assay: Enzyme inhibition kinetics, fluorogenic substrate ES001; assay type: biochemical; conditions: for inhibitory effect on enzymatic activity: 100 μM compound, in words; for Ki: read-out: Ki ± s.d. (converted)
T3 construct: made in house; host or cells: Sf9 and High Five insect cells
Experimental: (§1) The expression of recombinant full length proMMP-9 (rpMMP-9) in Sf9 and High Five insect cells and the purification were performed as previously described. The amount of proMMP-9 was estimated spectrophotometrically at 280 nm using ε280nm = […] [46] for the full length enzyme. Activation of the recombinant proMMP-9 was performed with APMA (auto-activation) and Mag-Trypsin as previously described, while the amount of active MMP-9 was determined by active site titration using galardin, also described previously.
(§2) Determination of reaction velocities. The substrate ES001 was used for APMA activated MMP-9 (MMP-9(A)), Mag-Trypsin activated MMP-9 (MMP-9(MT)) and MMP-14, while the substrate ES005 was used for ALN, PLN and TLN. The reaction velocities/initial rates (v) were determined at 37°C, at an excitation wavelength of 320 nm and an emission wavelength of 405 nm with a slit width of 10 nm using either a Perkin Elmer LS 50 Luminescence spectrometer and the FL WinLab Software Package (Perkin Elmer) or a Clario Star micro plate reader (CLARIOstar® BMG LABTECH).
(§3) The phosphinic compounds were dissolved in 100% DMSO to a final concentration of 10 mM. In all assays, a fixed substrate concentration of 4.0 µM was used in a total volume of 100 µL 0.1 M Hepes pH 7.5, 10 mM CaCl2, 0.005% Brij-35 and 1.0% DMSO. Fixed enzyme concentrations were as follows; 0.05 nM MMP-9(A), 0.05 nM MMP-9(MT), 1.0 nM MMP-14, 1.4 nM ALN, 0.5 nM PLN and 0.21 nM TLN. Time dependent inhibitory experiments, with and without 100 μM of phosphinic compounds, were performed as follows: Compounds were either pre-incubated with proteases for 15 and 30 minutes at room temperature before initiating the enzymatic reaction by adding the substrate, or not pre-incubated, meaning the reaction was initiated by adding the protease to the mixture of substrate and compound. Control tests without the compound present were performed under the same conditions. Reactions were monitored for 30 minutes at 37°C.
(§4) Determination of IC50 and Ki values. […] A fixed substrate concentration and the same enzyme and buffer conditions as described above were used. Enzymes, with or without inhibitors, were either pre-incubated for 30 minutes at room temperature or not pre-incubated, and initial rate assays were performed as described above. Assays were performed using a Clario Star microplate reader. The IC50 values with corresponding s.d. were calculated with GraphPad Prism 5 using equation 1 or 2, depending on the concentration range of the phosphinic compounds.
(§5) Equation 3 describe the relationship between IC50 and Ki values for substrate competitive inhibitors, considering the fixed substrate concentration and the enzyme’s Km value for the substrate: […]

[2] = biological target: T4, Mag-Trypsin activated MMP-9 (MMP-9(MT)) (Homo sapiens, UniProt P14780); assay: as above; assay type: biochemical; conditions: for inhibitory effect on enzymatic activity: 100 μM compound, in words; for Ki: read-out: Ki ± s.d. (converted)
T4 construct: made in house; host or cells: Sf9 and High Five insect cells
Experimental: as §1, §2, §3, §4, §5

[3] = biological target: T5, human MT1-MMP/MMP-14 (catalytic domain) (Homo sapiens, UniProt P50281); assay: as above; assay type: biochemical; conditions: for inhibitory effect on enzymatic activity: in words; for Ki: read-out: Ki ± s.d. (converted)
T5 construct: human MT1-MMP/MMP-14 (catalytic domain); purchased Calbiochem (San Diego, CA, USA)
Experimental: as §2, §3, §4, §5

thermolysin (TLN) [4] = biological target: T6, thermolysin (TLN) (Bacillus thermoproteolyticus, UniProt P00800); assay: Enzyme inhibition kinetics, fluorogenic substrate ES005; assay type: biochemical; conditions: for inhibitory effect on enzymatic activity: 100 μM compound, in words; for Ki: read-out: Ki ± s.d.
T6 construct: purchased Calbiochem (San Diego, CA, USA)
Experimental: as §2, §3, §4, §5

pseudolysin (PLN, LasB) = biological target: T7, pseudolysin (PLN, LasB) (Pseudomonas aeruginosa, UniProt P14756); assay: as above; assay type: biochemical; conditions: for inhibitory effect on enzymatic activity: 100 μM compound, in words
T7 construct: purchased Calbiochem (San Diego, CA, USA)
Experimental: as §2, §3, §4, §5

aureolysin (ALN) = biological target: T8, aureolysin (ALN) (Staphylococcus aureus, UniProt P81177); assay: as above; assay type: biochemical; conditions: for inhibitory effect on enzymatic activity: 100 μM compound, in words
T8 construct: purchased BioCentrum Ltd (Kraków, Poland)
Experimental: as §2, §3, §4, §5

thermolysin (TLN) [5] = biological target: T6, thermolysin (TLN); assay: MALDI-TOF MS analysis of ES005 cleavage; assay type: biochemical; conditions: One μM galardin, 100 nM TLN
Experimental: MALDI-TOF MS spectra were recorded for samples containing different enzyme and substrate concentrations at various time points using an Autoflex Speed instrument (Bruker Daltonik GmbH, Leipzig, Germany) equipped with a 355-nm nitrogen laser for desorption and ionization. The ionization matrix, HCCA, was dissolved to 10 mg/mL in a standard solvent (50% MeCN, 47.5% MQ-water, and 2.5% TFA) by vigorous vortexing. Prior to the MALDI run, a main buffer (0.1 M Hepes, pH 7.5, 10 mM CaCl2) was used to dilute TLN to stock concentrations of 1000, 100 and 50 nM, ES005–500 µM, and galardin to 10 µM. All stocks solutions were kept on ice. For the 0 min incubation, 1 µL TLN and 1 µL galardin were preincubated at 37°C in 8 µL of the main buffer for 10 min before adding 1 µL of ES005. For all other time points, 1 µL of ES005 was added to tubes containing 8 µL buffer and 1 µL of TLN at different concentrations, followed by incubation at 37°C. At each timepoint (0, 1, 3, 5, 10, 20, 30, 60, 120 min), 1 µL of galardin was added to stop enzyme activity. After the final incubation, 1 µL aliquots from each timepoint were mixed with an equal volume of HCCA and spotted onto a MALDI plate. […] The resulting mass spectra were analysed using flexAnalysis software (v3.3, Bruker).

T6 sequence (P00800 233-548): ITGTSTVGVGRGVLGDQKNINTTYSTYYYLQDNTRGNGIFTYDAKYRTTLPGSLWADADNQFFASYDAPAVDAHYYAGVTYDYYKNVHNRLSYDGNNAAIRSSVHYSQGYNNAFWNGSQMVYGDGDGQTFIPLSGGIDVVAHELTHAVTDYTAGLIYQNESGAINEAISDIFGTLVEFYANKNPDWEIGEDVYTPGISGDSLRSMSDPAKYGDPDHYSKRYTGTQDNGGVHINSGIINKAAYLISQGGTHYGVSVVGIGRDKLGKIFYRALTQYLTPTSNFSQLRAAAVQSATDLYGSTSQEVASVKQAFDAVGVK
T7 sequence (P14756 198-498): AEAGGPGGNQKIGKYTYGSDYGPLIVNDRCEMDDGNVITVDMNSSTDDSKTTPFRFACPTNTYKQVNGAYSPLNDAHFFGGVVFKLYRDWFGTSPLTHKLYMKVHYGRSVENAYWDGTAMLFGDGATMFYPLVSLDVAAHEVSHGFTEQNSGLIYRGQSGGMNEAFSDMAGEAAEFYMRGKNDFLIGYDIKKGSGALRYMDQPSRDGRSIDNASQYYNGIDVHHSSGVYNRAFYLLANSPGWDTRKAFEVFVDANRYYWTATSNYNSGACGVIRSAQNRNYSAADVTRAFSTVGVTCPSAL
T3 sequence (P14780 107-707 limits assumed): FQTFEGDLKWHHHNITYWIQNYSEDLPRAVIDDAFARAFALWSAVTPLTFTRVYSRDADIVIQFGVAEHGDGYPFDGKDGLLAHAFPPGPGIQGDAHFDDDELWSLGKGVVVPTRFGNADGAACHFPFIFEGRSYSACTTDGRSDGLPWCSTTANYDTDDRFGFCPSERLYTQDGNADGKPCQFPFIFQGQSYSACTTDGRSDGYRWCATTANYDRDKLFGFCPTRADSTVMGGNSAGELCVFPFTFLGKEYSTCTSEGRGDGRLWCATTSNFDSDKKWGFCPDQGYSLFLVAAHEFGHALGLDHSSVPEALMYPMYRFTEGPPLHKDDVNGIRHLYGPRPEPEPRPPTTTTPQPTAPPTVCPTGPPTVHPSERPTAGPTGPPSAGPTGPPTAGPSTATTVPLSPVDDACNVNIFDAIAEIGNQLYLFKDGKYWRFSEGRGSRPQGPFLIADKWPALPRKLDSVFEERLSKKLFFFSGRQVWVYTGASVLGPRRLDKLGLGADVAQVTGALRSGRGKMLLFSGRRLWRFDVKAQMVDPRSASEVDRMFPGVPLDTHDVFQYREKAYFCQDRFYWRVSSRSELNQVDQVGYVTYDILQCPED
T4 sequence (P14780 107-707 limits assumed): as above
T8 sequence (P81177 209-509): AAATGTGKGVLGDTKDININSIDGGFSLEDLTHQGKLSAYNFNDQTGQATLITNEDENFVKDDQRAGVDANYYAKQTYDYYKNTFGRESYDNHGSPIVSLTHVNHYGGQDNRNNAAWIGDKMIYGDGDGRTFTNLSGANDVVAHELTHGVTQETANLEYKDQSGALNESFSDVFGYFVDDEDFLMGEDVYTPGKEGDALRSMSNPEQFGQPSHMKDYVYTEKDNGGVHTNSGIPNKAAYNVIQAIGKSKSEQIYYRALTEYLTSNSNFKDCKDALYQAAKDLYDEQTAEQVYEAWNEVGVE
T2 sequence (P14780 107-707 limits assumed): as the sequence (P14780 107-707 limits assumed) above

Row | SMILES | inhibitory effect on enzymatic activity ([1]; MMP-9(A)) | inhibitory effect on enzymatic activity ([2]; MMP-9(MT)) | inhibitory effect on enzymatic activity ([3]; MMP-14, 100 μM compound) | inhibitory effect on enzymatic activity (thermolysin (TLN) [4]; TLN) | inhibitory effect on enzymatic activity (pseudolysin (PLN, LasB); PLN) | inhibitory effect on enzymatic activity (aureolysin (ALN); ALN) | Ki [1] [µM] | Ki [2] [µM] | Ki [3] [µM] | Ki (thermolysin (TLN) [4]) [µM] | Ki (pseudolysin (PLN, LasB)) [µM] | Ki (aureolysin (ALN)) [µM] | further results
1 | COc1ccc2c(CC(=O)N3CCC[C@H]3C(=O)N[C@@H](CC(C)C)C(=O)NCC(=O)N[C@@H](CC(C)C)C(=O)N[C@@H](CNc3ccc([N+](=O)[O-])cc3[N+](=O)[O-])C(=O)N[C@@H](C)C(=O)N[C@@H](CCCNC(=N)N)C(N)=O)cc(=O)oc2c1 [ES001, Mca-Pro-Leu-Gly-Leu-Dpa-Ala-Arg-NH2] (Mca-PLGL[Dap](Dnp)AR-NH2) | – | – | – | – | – | – | – | – | – | – | – | – | Km (MMP-14): 4.9 ± 0.4 µM; Km (MMP-9(A)): 4 ± 1 µM
2 | CC(=O)NC(CC(C)C)C(=O)CC(C)P(=O)(O)CC(Cc1ccccc1)C(=O)O (stereo not shown) [H-3] | weak or no inhibition | weak or no inhibition | weak or no inhibition | weak or no inhibition | weak or no inhibition | weak or no inhibition | – | – | – | – | – | – | Ki ([1]; MMP-9(A), substrate ES001 4.0 µM, 0.1 M Hepes pH 7.5, 37°C, 1.0% DMSO, Ki from IC50 (Eqn. 3)): ≥ 100 µM; Ki ([2]; MMP-9(MT), substrate ES001 4.0 µM, 0.1 M Hepes pH 7.5, 37°C, 1.0% DMSO, Ki from IC50 (Eqn. 3)): ≥ 100 µM; pre-incubation time after which inhibition stabilizes (slow binding) ([3]; MMP-14, 100 μM compound, pre-incubation at room temperature): 15 min; Ki ([3]; MMP-14, substrate ES001 4.0 µM, 0.1 M Hepes pH 7.5, 37°C, 1.0% DMSO, Ki from IC50 (Eqn. 3)): ≥ 100 µM; Ki (thermolysin (TLN) [4]; TLN, substrate ES005 4.0 µM, 0.1 M Hepes pH 7.5, 37°C, 1.0% DMSO, Ki from IC50 (Eqn. 3)): ≥ 100 µM; Ki (pseudolysin (PLN, LasB); read-out: Ki ± s.d., PLN, substrate ES005 4.0 µM, 0.1 M Hepes pH 7.5, 37°C, 1.0% DMSO, Ki from IC50 (Eqn. 3)): ≥ 100 µM; Ki (aureolysin (ALN); read-out: Ki ± s.d., ALN, substrate ES005 4.0 µM, 0.1 M Hepes pH 7.5, 37°C, 1.0% DMSO, Ki from IC50 (Eqn. 3)): ≥ 100 µM
3 | CC(NC(=O)OCc1ccccc1)P(=O)(O)CC(Cc1ccccc1)C(=O)O (stereo not shown) [H-4] | weak or no inhibition | weak or no inhibition | weak or no inhibition | weak or no inhibition | weak or no inhibition | weak or no inhibition | ≥ 100 | ≥ 100 | ≥ 100 | ≥ 100 | ≥ 100 | ≥ 100 | –
4 | CCOC(=O)C(CO)CP(=O)(O)C(Cc1ccccc1)NC(=O)OCc1ccccc1 (stereo not shown) [H-5] | weak or no inhibition | weak or no inhibition | weak or no inhibition | weak or no inhibition | weak or no inhibition | weak or no inhibition | ≥ 100 | ≥ 100 | ≥ 100 | ≥ 100 | ≥ 100 | ≥ 100 | –
5 | CNC(=O)[C@H](Cc1c[nH]c2ccccc12)NC(=O)[C@@H](CC(=O)NO)CC(C)C [galardin] | – | – | – | – | – | – | – | – | – | – | – | – | inhibition of TLN (stopping of substrate cleavage) (thermolysin (TLN) [5]): not sufficient to completely inhibit
